Test results published in patent US7323441B2, “Use of lupin conglutin for the treatment of type II diabetes” (Indena S.p.A., priority 2003, dated 2008).

Tested on: glucose plasma levels
Assay: Hypoglycemizing activity in rats after oral glucose administration (2 g/kg)
Format: in vivo, rat
Conditions: 50 mg/kg os, 30 min before glucose 2 g/kg os; male CD rats; AUC 0 to 90 min; mean±M.S.E.
Procedure: Male CD strain rats, of the starting weight 275-300 g, were used. The animals were housed in makrolon cages in environment with automatic control of light (12 hour light/12 hour darkness cycles), temperature (21±1° C.) and humidity (60±5%).
Lupin conglutin gamma prepared as reported in Example 2 was used. 100 rats (divided into in 5 groups of […] animals each) were pre-treated (time−30 min) with: • Group 1: carrier (1% carboxymethylcellulose [CMC]; 2 ml/kg os) • Group 2: lupin conglutin gamma (50 mg/kg os in 1% CMC) • Group 3: lupin conglutin gamma (100 mg/kg os in 1% CMC) • Group 4: lupin conglutin gamma (200 mg/kg os in 1% CMC) • Group 5: metformin (50 mg/kg os in 1% CMC) […]
Immediately before the glucose administration (time 0 min) and 30, 60 and 90 min after the glucose administration, all the animals (n=5 rats for each time) were anaesthetized with sodium thiopental (50 mg/kg i.p.) and 5 ml of blood was drawn from the vena cava. Blood samples were collected in syringes containing EDTA (7.5 mM) as anticoagulant, and immediately subjected to centrifugation (2000 g×10 min at 4° C.) to obtain the plasma necessary for the enzymatic quantitation of glucose.
The quantitation of the glucose in rat plasma was carried out in triplicate by enzymatic assay (absorbance at 505 nm) and the glucose concentration was expressed in mg/dl. […]

## CN(C)C(=N)N=C(N)N [metformin]
  area under the curve (AUC) of glucose plasma levels: 1565±201
